Key:
[1] = Equivalent corticosteroid dosing (BNF clinical dosing equivalence); conditions: BNF guidelines
Protocol: Equivalent potency in clinical dosing is well known.
The BNF guidelines are included in Table 2 below. More specifically, Table 2 provides doses of corticosteroids equivalent to 5 mg of prednisolone and equivalent to 1 mg of prednisolone when administered in a manner according to this invention.

[2] = cited from earlier work; for Equivalent dose, equal to 5 mg prednisolone: BNF guidelines

Molecule | Equivalent dose, equal to 1 mg prednisolone [1] [mg] | Equivalent dose, equal to 5 mg prednisolone [2] [mg] | broadly similar dose from clinical dosing equivalence ([2]; nasal administration, BNF 37 March 1999) [µg]
CC(=O)OCC(=O)[C@@]12N=C(C)O[C@@H]1C[C@H]1[C@@H]3CCC4=CC(=O)C=C[C@]4(C)[C@H]3[C@@H](O)C[C@@]12C [Deflazacort] | 1.2 | 6 | –
C[C@]12CCC(=O)C=C1CC[C@@H]1[C@@H]2[C@@H](O)C[C@@]2(C)[C@H]1CC[C@]2(O)C(=O)CO [Hydrocortisone] | 4 | 20 | –
C[C@]12C=CC(=O)C=C1CC[C@H]1[C@@H]3C[C@@H](O)[C@](O)(C(=O)CO)[C@@]3(C)C[C@H](O)[C@@]12F [Triamcinolone] | 0.8 | 4 | 110
CC(=O)OCC(=O)[C@@]1(O)CC[C@H]2[C@@H]3CCC4=CC(=O)CC[C@]4(C)[C@H]3C(=O)C[C@@]21C [cortisone acetate] | 5 | 25 | –
methyl prednisone | 0.8 | 4 | –
